Laboratory results published in US20250213588A1, “STERILIZATION METHOD OF PHARMACEUTICAL PREPARATION AND PACKAGING” (SANTEN PHARMACEUTICAL CO., LTD., priority 2022, published 2025).
“Also recorded” adds a separate entry of the source.

Experiments:
Assay type in all cases: physicochemical
[1] = Photostability test (1): irradiation at specific wavelengths; details: Preparations 1 and 2; irradiated for 24 hours with multi-wavelength irradiation spectrometer; HPLC (FIG. 2)
Experimental: The stability of the aqueous pharmaceutical composition comprising AFDX0250 or a salt thereof under light irradiation was studied.
Preparation 1 with the composition shown in the above Table 1 and Preparation 2 with the composition shown in Table 4 were prepared in usual manners. The prepared preparations were used as test preparations.
The prepared test preparations were irradiated at specific wavelengths using multi-wavelength irradiation spectrometer for 24 hours, and the amount of AFDX0250 in each test preparation at each irradiation wavelength after the irradiation was quantified by high performance liquid chromatography to calculate the residual ratio of AFDX0250 (%). The residual ratio of AFDX0250 (%) represents the ratio of AFDX0250 (%) after irradiation when the amount of AFDX0250 in the test formulation is 100%.

[2] = Absorption wavelength measurement test (UV-visible spectrophotometer); details: 0.0025% AFDX0250 solution in acetonitrile
Experimental: The absorption wavelength of AFDX0250 was measured.
AFDX0250 (10 mg) was dissolved in acetonitrile, and the solution was adjusted exactly to 100 mL to prepare 0.01% AFDX0250 solution. The solution was diluted 4-fold to prepare 0.0025% AFDX0250 solution. The prepared 0.0025% AFDX0250 solution was used as a test preparation.
The absorption spectrum of the prepared test preparation was measured using ultraviolet visible spectrophotometer.

[3] = Stability evaluation test after sterilization treatment; details: for Hydrolysate (%): Example 6 test preparation; for Residual ratio (%): Example 6 test preparation (0.25 g AFDX0250 in 50 mL, citrate buffer, sodium chloride)
Experimental: An aqueous pharmaceutical composition comprising AFDX0250 or a salt thereof was sterilized to evaluate the stability of AFDX0250 in a preparation.
Sodium citrate hydrate (2.5 g) was dissolved in purified water and the solution was adjusted exactly to 100 mL to prepare 2.5% sodium citrate hydrate solution. Citric acid hydrate (0.2 g) was dissolved in purified water and the solution was adjusted exactly to 100 mL to prepare 0.2% citric acid hydrate solution. Sodium chloride (5 g) was dissolved in purified water and the solution was adjusted exactly to 50 mL to prepare 10% sodium chloride solution. 0.25 g of AFDX0250 was weighed, the weighed AFDX0250 was mixed with 10 mL each of 2.5% sodium citrate hydrate solution, 0.2% citric acid hydrate solution and 10% sodium chloride solution, and then the solution was adjusted exactly to 50 mL with purified water to prepare a test preparation.
The prepared test preparation was subjected to gamma radiation sterilization, sterilization by filtration using a filter or autoclaved (AC) sterilization to prepare a sterile formulation. The amount of AFDX0250 after each sterilization treatment was quantified by high performance liquid chromatography to calculate the residual ratio of AFDX0250 (%). The residual ratio of AFDX0250 (%) represents the ratio of AFDX0250 (%) after sterilization treatment when the amount of AFDX0250 in the test preparation is 100%. In addition, the amount of AFDX0250-derived hydrolysate (5,11-dihydro-6H-pyrido[2,3-b][1,4]benzodiazepin-6-one) in each test preparation excluding the test preparation subjected to gamma radiation sterilization was quantified by high performance liquid chromatography.

[4] = after AC (autoclaved) sterilization
[5] = after sterilization by filtration using a filter

## CCN(CC)C[C@H]1CCCCN1CC(=O)N1c2ccccc2C(=O)Nc2cccnc21 [AFDX0250, (R)-11-[2-[2-[(diethylamino)methyl]-1-piperidinyl]acetyl]-5,11-dihydro-6H-pyrido[2,3-b][1,4]benzodiazepin-6-one]
[1]
  degradation of AFDX0250 under irradiation at specific wavelengths: degraded at a wavelength of from 216 to 310 nm and 372 nm; also recorded: particularly degraded at a wavelength of 370 nm
[2]
  absorption spectrum of AFDX0250: no absorption of AFDX0250 was observed at the longer wavelengths than about 330 nm
[3]; [4]
  Hydrolysate (%): 0.37%
  Residual ratio (%): 93.8%
[3]; after gamma radiation sterilization
  Residual ratio (%): 55.7%
[3]; [5]
  Hydrolysate (%): 0.06%
  Residual ratio (%): 100.3%
